Measured values: the supplement of paper PMC8671470

Experiments:
Conditions in all cases: 72 h
HL-60 [1] = assay: cell viability (% survival relative to DMSO control); higher = less cytotoxic
Procedure, shortened: (§1)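 In 384-well plates, the full library was rescreened in duplicate on HL-60 cells in RPMI 1640 with 10% FBS, at 1–10,000 nM in five tenfold concentrations, for 72 h at 37 °C, 5% CO2. Each run also held DMSO or 100 nM of one of three metabolic inhibitors. Viability was measured by CellTiter-Glo and normalised to DMSO wells and to wells with proteasome inhibitor, present at 10 μM. Any area under the curve comes from four-parameter log-logistic fitting with drc and PharmacoGx.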

HL-60 [2] = assay: area under dose-response curve (viability, 1 nM-10 uM) (fraction (0-1)); higher = more sensitive
Procedure, shortened: as §1

KCL-22 [3] = system: KCL-22
Procedure, shortened: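 Each of fifteen myeloid leukaemia cell lines was seeded in RPMI 1640 at a density titrated to its linear growth range. The cells were incubated for 72 h at 37 °C and 5% CO2 with compounds at five tenfold doses from 1 to 10,000 nM, in duplicate. After ATP luminescence was normalised to vehicle and to a positive control at 10 µM, four-parameter log-logistic curves were fitted. These curves gave the IC50.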

KG-1 = assay: cell viability (% survival relative to DMSO control, bortezomib = 0%); higher = less cytotoxic
Procedure, shortened: (§2)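 Percent survival figures are means of duplicate wells. They were obtained by CellTiter-Glo luminescence after 10 AML and 5 CML cell lines spent 72 h at 37 °C with 5% CO2 in 384-well plates with compounds at 1, 10, 100, 1000 or 10000 nM. Vehicle was set to 100% and a 10 µM positive control to 0%.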

HL-60 [4] = assay: as above
Procedure, shortened: as §2

LAMA-84 = assay: as above
Procedure, shortened: as §2

KCL-22 [5] = assay: as above
Procedure, shortened: as §2

ML-2 = assay: as above
Procedure, shortened: as §2

K-562 = assay: as above
Procedure, shortened: as §2

HEL = assay: as above
Procedure, shortened: as §2

SHI-1 = assay: as above
Procedure, shortened: as §2

THP-1 = assay: as above
Procedure, shortened: as §2

MOLM-13 = assay: as above
Procedure, shortened: as §2

MV4-11 = assay: as above
Procedure, shortened: as §2

BV-173 = assay: as above
Procedure, shortened: as §2

NOMO-1 = assay: as above
Procedure, shortened: as §2

KU-812 = assay: as above
Procedure, shortened: as §2

Mono-Mac-6 = assay: as above
Procedure, shortened: as §2

Clc1cc(Cl)c(OCC#CI)cc1Cl [Haloprogin]
cell viability [%], HL-60 [1]
Conditions	0.001 µM	0.01 µM	0.1 µM	1 µM	10 µM
co-treatment: AZD3965 100 nM	103	102	104	99.73	3.01
co-treatment: DMSO vehicle	102	103	106	104	57.3
co-treatment: GSK2194069 100 nM	95.5	107	96.4	105	71.4
co-treatment: pictilisib 100 nM	92.6	96.3	107	105	14.4

Conditions	area under dose-response curve, co-treatment: AZD3965 100 nM	area under dose-response curve, co-treatment: DMSO vehicle	area under dose-response curve, co-treatment: GSK2194069 100 nM	area under dose-response curve, co-treatment: pictilisib 100 nM	cell viability, 1 nM [%]	cell viability, 10 nM [%]	cell viability, 100 nM [%]	cell viability, 1000 nM [%]	cell viability, 10000 nM [%]
BV-173	–	–	–	–	120	93	104	71.5	0.185
HEL	–	–	–	–	103	101	106	106	0.615
HL-60 [2]	0.125	0.032	< 0.0301	0.0952	–	–	–	–	–
HL-60 [4]	–	–	–	–	92.2	109	108	109	51.4
K-562	–	–	–	–	93.8	91.4	92.6	95.6	18.1
KCL-22 [5]	–	–	–	–	95.9	97.1	104	73.9	2.51
KG-1	–	–	–	–	108	101	101	101	0.829
KU-812	–	–	–	–	104	95	107	80.6	2.77
LAMA-84	–	–	–	–	94.4	94.6	99.9	101	21.7
ML-2	–	–	–	–	106	108	113	102	-0.066
MOLM-13	–	–	–	–	100	113	112	108	6.57
MV4-11	–	–	–	–	109	98	101	89	0.356
Mono-Mac-6	–	–	–	–	103	95.7	98.8	94.1	0.149
NOMO-1	–	–	–	–	109	103	109	98.2	0.243
SHI-1	–	–	–	–	97.8	112	107	99.5	62.6
THP-1	–	–	–	–	101	97.4	100	74	0.288

Conditions	IC50 (cell viability) [nM]
KCL-22 [3]	1710
